Counter-ions that a name gives are not always drawn.
System: aconitin-induced atrial fibrillation
Experiment: Aconitin-induced atrial fibrillation model in anaesthetized dogs (Pharmacological Trial 1)
Assay type: in vivo, dog
Settings: Canis lupus familiaris; intravenous, anesthetized dogs, as hydrochloride; read-out: minimum dose level which suppresses atrial fibrillation
Procedure: Pharmacological Trial 1: Evaluation of effectiveness in aconitin-induced atrial fibrillation model (dogs) Evaluation was performed according to K. Hashimoto (Jpn. J. Pharmacol., Vol. 46, 349-358, 1988) as follows:
Method: Dog was anesthetized and thoracotomy was made. Persistent atrial fibrillation was induced by placing a piece of filter paper impregnated with 0.5% aconitin solution (20 to 30 μl) on the right atrium. […] Onset and suppression of atrial fibrillation were monitored electrocardiographically by placing Ag--AgCl bipolar electrode on the right atrial auricle.
Results: Each compound in Examples 1 to 87 suppressed atrial fibrillation at least following dose level (all compounds were used in the form of hydrochloride).

**Q.** For CCNCCOc1ccc(NC(=O)c2c(OC)cccc2OC)cc1.Cl [Example 20, 4'-[(2-Ethylamino)ethoxy]-2,6-dimethoxybenzanilide Hydrochloride], which minimal effective dose is on record?
**A.** Its minimal effective dose is 10 mg/kg.

**Q.** COc1cc(NC(=O)c2ccccc2NS(C)(=O)=O)ccc1OCCNC(C)C [Example 58, 4'-[2-(Isopropylamino)ethoxy]-2-meth anesulfonamido-3'-methoxybenzanilide] was tested. Which minimal effective dose did it give?
**A.** The minimal effective dose was 10 mg/kg.

**Q.** How did the minimal effective dose turn out when COc1cc(NC(=O)c2c(OC)cccc2OC)ccc1OCCNC(C)C.Cl [Example 4, 4'-[2-(isopropylamino)ethoxy]-2,6-dimethoxy-3'-methoxybenzanilide Hydrochloride] was run?
**A.** Its minimal effective dose is 10 mg/kg.

**Q.** How did the minimal effective dose turn out when COc1cc(NC(=O)c2c(OC)cccc2OC)ccc1OCCNC1CCCC1.Cl [Example 62, 4'-[2-(Cyclopentylamino)ethoxy]-2,6-dimethoxy-3'-methoxybenzanilide Hydrochloride] was run?
**A.** Its minimal effective dose is 10 mg/kg.

**Q.** How did the minimal effective dose turn out when CS(=O)(=O)Nc1ccccc1C(=O)Nc1ccc(OCCN2CCCC2)cc1 [Example 17, 2-Methanesulfonamido-4'-[2-(1-pyrrolidinyl)ethoxy]benzanilide] was run?
**A.** Its minimal effective dose is 10 mg/kg.

**Q.** For CCCNCCOc1ccc(NC(=O)C2CCOC2)cc1.Cl (stereo not drawn) [Example 27, 4'-[2-(Propylamino)ethoxy]-2,3,4,5-tetrahydro-3-furanilide Hydrochloride], which minimal effective dose is on record?
**A.** Its minimal effective dose is 3 mg/kg.

**Q.** COc1cccc(OC)c1C(=O)Nc1ccc(OCCNC(C)C)c(NS(C)(=O)=O)c1 [Example 65, 4'-[2-(Isopropylamino)ethoxy]-3'-methanesulfonamido-2,6-dimethoxybenzanilide] was tested. Which minimal effective dose did it give?
**A.** The minimal effective dose was 10 mg/kg.

**Q.** CS(=O)(=O)Nc1cc(NC(=O)c2ccccc2NS(C)(=O)=O)ccc1OCCNC1CCCC1.Cl [Example 68, 4'-[2-(Cyclopentylamino)ethoxy]-2-methanesulfonamido-3'-(methanesulfonamido)benzanilide Hydrochloride] was tested. Which minimal effective dose did it give?
**A.** The minimal effective dose was 10 mg/kg.

**Q.** Which minimal effective dose does the source give for Cc1cccc(C)c1C(=O)Nc1ccc(OCCN2CCOCC2)cc1 [Example 19, 2,6-Dimethyl-4'-(2morpholinoethoxy)benzanilide] here?
**A.** Its minimal effective dose is 3 mg/kg.

**Q.** How did the minimal effective dose turn out when COc1cccc(OC)c1C(=O)Nc1ccc(OCCNC(C)(C)C)cc1 [Example 39, 2,6-Dimethoxy-4'-[2-(tert-butylamino)ethoxy]benzanilide] was run?
**A.** The minimal effective dose was 10 mg/kg.

**Q.** CC(C)NCCOc1ccc(NC(=O)c2ccoc2)cc1NS(C)(=O)=O.Cl [Example 67, 4'-[2-(Isopropylamino)ethoxy]-3'-methanesulfonamido-3-furanilide Hydrochloride] was tested. Which minimal effective dose did it give?
**A.** Its minimal effective dose is 10 mg/kg.

**Q.** Which minimal effective dose does the source give for COc1cccc(OC)c1C(=O)Nc1ccc(OCCNC(C)C)cc1 [Example 30, 4'-[2-(Isopropylamino)ethoxy]-2,6-dimethoxybenzanilide] here?
**A.** The minimal effective dose was 10 mg/kg.

**Q.** Cc1cc(NC(=O)c2ccccc2S(C)(=O)=O)cc(C)c1OCCNC(C)C.Cl [Example 83, 4'-[2-(Isopropylamino)ethoxy]-2-methanesulfonyl-3',5'-dimethylbenzanilide Hydrochloride] was tested. Which minimal effective dose did it give?
**A.** The minimal effective dose was 10 mg/kg.

**Q.** Which minimal effective dose does the source give for COCCC(=O)Nc1ccc(OCCNC2CC2)cc1 [Example 53, 4'-[2-(Cyclopropylamino)ethoxy]-3-methoxypropananilide] here?
**A.** Its minimal effective dose is 10 mg/kg.

**Q.** CC(C)NCCOc1ccc(NC(=O)c2ccccc2NS(C)(=O)=O)cc1NS(C)(=O)=O.Cl [Example 66, 4'-[2-(Isopropylamino)ethoxy]-2-methanesulfonamido-3'-(methanesulfonamido)benzanilide Hydrochloride] was tested. Which minimal effective dose did it give?
**A.** The minimal effective dose was 3 mg/kg.

**Q.** Cc1cccc(C)c1C(=O)Nc1ccc(OCCNC(C)C)cc1 [Example 31, 4'-[2-(Isopropylamino)ethoxy]-2,6-dimethylbenzanilide] was tested. Which minimal effective dose did it give?
**A.** Its minimal effective dose is 10 mg/kg.

**Q.** CCN(CC)CCOc1ccc(NC(=O)c2ccccc2NS(C)(=O)=O)cc1.Cl [Example 9, 4'-[2-(Diethylamino)ethoxy]-2-(methanesulfonamido)benzanilide Hydrochloride] was tested. Which minimal effective dose did it give?
**A.** The minimal effective dose was 10 mg/kg.

**Q.** For CC(C)NCCOc1ccc(NC(=O)C2CCOC2)cc1.Cl (stereo not drawn) [Example 33, 4'-[2-(Isopropylamino)ethoxy]-2,3,4,5-tetrahydro-3-furanilide Hydrochloride], which minimal effective dose is on record?
**A.** The minimal effective dose was 10 mg/kg.

**Q.** For COCCCNCCOc1ccc(NC(=O)c2c(OC)cccc2OC)cc1 [Example 48, 2,6-Dimethoxy-4'-[2-[(3-methoxypropyl)amino]ethoxy]benzanilide], which minimal effective dose is on record?
**A.** The minimal effective dose was 3 mg/kg.

**Q.** Which minimal effective dose does the source give for COCCNCCOc1ccc(NC(=O)c2c(OC)cccc2OC)cc1 [Example 41, 4'-[2-[(2-Methoxyethyl)amino]ethoxy]-2,6-dimethoxy Benzanilide] here?
**A.** The minimal effective dose was 10 mg/kg.

**Q.** For CS(=O)(=O)Nc1ccccc1C(=O)Nc1ccc(OCCNC2CCCC2)cc1 [Example 54], which minimal effective dose is on record?
**A.** Its minimal effective dose is 10 mg/kg.

**Q.** Cc1cc(NC(=O)C2CCOC2)cc(C)c1OCCNC(C)C.Cl (stereo not drawn) [Example 84, 4'-[2-(Isopropylamino)ethoxy]-3',5'-dimethyl-2,3,4,5-tetrahydro-3-furanilide Hydrochloride] was tested. Which minimal effective dose did it give?
**A.** Its minimal effective dose is 10 mg/kg.

**Q.** For COCCC(=O)Nc1ccc(OCCNC2CCCC2)c(OC)c1 [Example 61, 4'-[2-(Cyclopentylamino)ethoxy]-3'-methoxy-3-methoxypropananilide], which minimal effective dose is on record?
**A.** Its minimal effective dose is 10 mg/kg.

**Q.** Cc1cc(NC(=O)c2ccoc2)cc(C)c1OCCNC(C)C.Cl [Example 87, 4'-[2-(Isopropylamino)ethoxy]-3',5'-dimethyl-3-furanilide Hydrochloride] was tested. Which minimal effective dose did it give?
**A.** Its minimal effective dose is 10 mg/kg.

**Q.** How did the minimal effective dose turn out when CCCN(CCC)CCOc1ccc(NC(=O)c2c(C)cccc2C)cc1 [Example 14, 4'-[2-(Dipropylamino)ethoxy]-2,6-dimethylbenzanilide] was run?
**A.** Its minimal effective dose is 3 mg/kg.

**Q.** How did the minimal effective dose turn out when CCN(CC)CCOc1ccc(NC(=O)c2c(OC)cccc2OC)c(C)c1 [Example 73, 4'-[2-(Diethylamino)ethoxy]-2-dimethoxy-2'-methyl Benzanilide] was run?
**A.** The minimal effective dose was 3 mg/kg.

**Q.** CCNCCOc1ccc(NC(=O)c2ccccc2S(C)(=O)=O)cc1.Cl [Example 22, 4'-[(2-Ethylamino)ethoxy]-2-(methanesulfonyl)benzanilide Hydrochloride] was tested. Which minimal effective dose did it give?
**A.** Its minimal effective dose is 3 mg/kg.

**Q.** With CC(C)(C)NCCOc1ccc(NC(=O)c2ccccc2NS(C)(=O)=O)cc1 [Example 40, 2-Methanesulfonamido-4'-[2-(tert-butylamino)ethoxy]benzanilide] as the molecule, how does the minimal effective dose read?
**A.** Its minimal effective dose is 0.3 mg/kg.

**Q.** With CCNCCOc1ccc(NC(=O)c2ccoc2)cc1OC.Cl [Example 56, 4'-[2-(Ethylamino)ethoxy]-3'-methoxy-3-furanilide Hydrochloride] as the molecule, how does the minimal effective dose read?
**A.** The minimal effective dose was 10 mg/kg.

**Q.** Which minimal effective dose does the source give for CCNCCOc1ccc(NC(=O)C2CCOCC2)cc1.Cl [Example 3, 4'-[2-(ethylamino)ethoxy]-3,4,5,6-tetrahydro-2H-pyran-4-carboxanilide Hydrochloride] here?
**A.** The minimal effective dose was 10 mg/kg.

**Q.** Which minimal effective dose does the source give for Cc1cc(OCCNC(C)C)ccc1NC(=O)c1ccoc1.Cl [Example 72, 4'-[2-(Isopropylamino)ethoxy]-2'-methyl-3-furanilide Hydrochloride] here?
**A.** The minimal effective dose was 3 mg/kg.

**Q.** COCCNCCOc1ccc(NC(=O)CCOC)cc1.Cl [Example 44, 4'-[2-[(2-Methoxyethyl)amino]ethoxy]-3-methoxy propananilide Hydrochloride] was tested. Which minimal effective dose did it give?
**A.** Its minimal effective dose is 10 mg/kg.

**Q.** CCCNCCOc1ccc(NC(=O)c2c(OC)cccc2OC)cc1 [Example 26, 2,6-Dimethoxy-4'-[2-(propylamino)ethoxy]benzanilide] was tested. Which minimal effective dose did it give?
**A.** Its minimal effective dose is 10 mg/kg.

**Q.** With COc1cccc(OC)c1C(=O)Nc1ccc(OCCNC(C)C)cc1NS(C)(=O)=O [Example 64, 4'-[2-(Isopropylamino)ethoxy]-2'-methanesulfonamido-2,6-dimethoxybenzaniideHydrochloride] as the molecule, how does the minimal effective dose read?
**A.** The minimal effective dose was 10 mg/kg.

**Q.** Which minimal effective dose does the source give for COCCNCCOc1ccc(NC(=O)C2CCOC2)cc1.Cl (stereo not drawn) [Example 43, 4'-[2-[(2-Methoxyethyl)amino]ethoxy]-2,3,4,5-tetrahydro-3-furanilide Hydrochloride] here?
**A.** The minimal effective dose was 10 mg/kg.

**Q.** How did the minimal effective dose turn out when COc1cc(NC(=O)c2ccccc2S(C)(=O)=O)ccc1OCCNC(C)C.Cl [Example 59, 4'-[2-(Isopropylamino)ethoxy]-2-methanesulfonyl-3'-methoxybenzanilide Hydrochloride] was run?
**A.** Its minimal effective dose is 10 mg/kg.

**Q.** For COc1cccc(OC)c1C(=O)Nc1ccc(OCCN)cc1.Cl [Example 1, 4'-(2-aminoethoxy)-2,6-dimethoxybenzanilide Hydrochloride], which minimal effective dose is on record?
**A.** The minimal effective dose was 10 mg/kg.

**Q.** How did the minimal effective dose turn out when COCCC(=O)Nc1ccc(OCCNC(C)C)cc1.Cl [Example 36, 4'-[2-(Isopropylamino)ethoxy]-3-methoxypropananilide Hydrochloride] was run?
**A.** Its minimal effective dose is 10 mg/kg.

**Q.** How did the minimal effective dose turn out when O=C(Nc1ccc(OCCNC2CC2)cc1)C1CCOCC1 [Example 52, 4'-[2-(Cyclopropylamino)ethoxy]-3,4,5,6-tetrahydro-2H-pyran-4-carboxanilideHydrochloride] was run?
**A.** The minimal effective dose was 3 mg/kg.

**Q.** Which minimal effective dose does the source give for CC(C)NCCOc1ccc(NC(=O)c2ccccc2NS(C)(=O)=O)cc1.Cl [Example 29, 4'-[2-(Isopropylamino)ethoxy]-2-(methanesulfonamido) benzanilide Hydrochloride] here?
**A.** The minimal effective dose was 0.3 mg/kg.

**Q.** For CC(C)NCCOc1ccc(NC(=O)c2ccoc2)cc1.Cl [Example 35, 4'-[2-(Isopropylamino)ethoxy]-3-furanilide Hydrochloride], which minimal effective dose is on record?
**A.** Its minimal effective dose is 10 mg/kg.

**Q.** How did the minimal effective dose turn out when CCOCCNCCOc1ccc(NC(=O)c2c(OC)cccc2OC)cc1 [Example 46, 4'-[2-[(2-Ethoxyethyl)amino]ethoxy]-2,6-dimethoxy Benzanilide] was run?
**A.** Its minimal effective dose is 10 mg/kg.

**Q.** With CCNCCOc1ccc(NC(=O)CCOC)cc1 [Example 24, 4'-[(2-Ethylamino)ethoxy]-3-methoxypropananilide] as the molecule, how does the minimal effective dose read?
**A.** The minimal effective dose was 10 mg/kg.

**Q.** With CC(C)NCCOc1ccc(NC(=O)c2ccccc2S(C)(=O)=O)cc1NS(C)(=O)=O.Cl [Example 5, 4'-[2-(isopropylamino)ethoxy]-3'-methanesulfonamido-2-(methanesulfonyl)benzanilide Hydrochloride] as the molecule, how does the minimal effective dose read?
**A.** The minimal effective dose was 10 mg/kg.

Same assay, conditions: intravenous, anesthetized dogs, as hydrochloride

**Q.** “4'-[2-(Dipropylamino)ethoxy]-2,6-dimethoxybenzanilide [Example 15]” was tested. Which “minimum dose level which suppresses atrial fibrillation” value did it give?
**A.** The value was 10 mg/kg.

— patent publication US6300368A, “Anilide derivatives and antiarrhythmic agents containing the same” (priority 1998, dated 2001)
